Results published in US7968526B2, “Antisense oligonucleotides directed to ribonucleotide reductase R2 and uses thereof in the treatment of cancer” (Lorus Therapeutics Inc., priority 2003, dated 2011).

Key:
[1] = test system: DU145 human prostatic cancer cells; test: DU145 prostatic tumour xenograft in SCID mice, combination with mitoxantrone (1.5); type: in vivo, human cells in mice
Method: After 52 days the mice were sacrificed and the tumours weighed. […] In both experiments, PC-3 human prostatic cancer cells (1×10^7 cells in 100 μl of PBS) were subcutaneously injected into the right flank of 6-7 weeks old male SCID mice. After the size of tumour reached an approximate volume of 50 mm^3, 14 days post tumour cell injection, SEQ ID NO: 1 was administered by bolus infusion into the tail vein every other day at 10 mg/kg 18 times (FIG. 4A) or 17 times (FIG. 4B), respectively. Control animals received saline alone for the same period. Antitumour effect of SEQ ID NO:1 was further compared to that of mitoxantrone (novantrone) alone or in combination. Mitoxantrone was administered intravenously once at the beginning of the treatments at a dose of 2 mg/kg (FIG. 4A) or once a week for four weeks at a reduced dose of 0.8 mg/kg (FIG. 4B). All treatments were stopped at day 50 (FIG. 4A) or 48 (FIG. 4B), respectively. A day after the last treatment, tumours were excised from the animals and their weights were measured. […] In both experiments, DU145 human prostatic cancer cells (1×10^7 cells in 100 μl of PBS) were subcutaneously injected into the right flank of 6-7 weeks old male SCID mice. After the size of tumour reached an approximate volume of 50 mm^3, 13 (FIG. 5A) or 11 (FIG. 5B) days post tumour cell injection, SEQ ID NO:1 was administered by bolus infusion into the tail vein every other day at 10 mg/kg 15 times (FIG. 5A) or 14 times (FIG. 5B), respectively. Control animals received saline alone for the same period. Antitumour effect of SEQ ID NO:1 was further compared to that of mitoxantrone (novantrone) alone or in combination. Mitoxantrone was administered intravenously once at the beginning of the treatments at a dose of 2 mg/kg (FIG. 5A) or once a week for four weeks at a reduced dose of 0.8 mg/kg (FIG. 5B). All treatments were stopped at day 42 (FIG. 5A) or 38 (FIG. 5B), respectively. A day after the last treatment, tumours were excised from the animals and their weights were measured.

[2] = test system: HT-29 human colon cancer cells; test: HT-29 colon tumour growth in CD-1 nude mice, SEQ ID NO:1 alone (3.1); type: in vivo, human cells in mice
Method: (§1) Treatments lasted for 14 days thereafter. Antitumour activities were estimated by the inhibition of tumour volume, which was measured with a caliper on four different occasions over the treatment period. Each point represents mean tumour volume calculated from 5 animals per experimental group. […] Control animals (control) received saline alone for the same period. At the end of the treatments, the animals were sacrificed, tumours were excised and their weights were measured. Each bar represents mean tumour weight calculated from 6 animals per experimental group. […] Treatments lasted for 24 days thereafter. Antitumour activities were estimated by the inhibition of tumour volume, which was measured with a caliper at two-day intervals over the treatment period. Each point represents mean tumour volume calculated from 4 animals per experimental group. […] Treatments lasted for 24 days thereafter. Antitumour activities were estimated by the inhibition of tumour volume, which was measured with a caliper at two-day intervals over the treatment period. Each point represents mean tumour volume calculated from 4 animals per experimental group. […] Treatments lasted for 22 days thereafter. […] Each point represents mean tumour volume calculated from 5 animals per experimental group. […] Treatments lasted for 14 days thereafter. Antitumour activities were estimated by the inhibition of tumour volume, which was measured with a caliper on four different occasions over 16-day period. Each point represents mean tumour volume calculated from 5 animals per experimental group. […] Two different batches of SEQ ID NO:1, synthesized at different times (designated as batch 1 and batch 2), were tested to detect possible batch-specific effects. […] Treatments lasted for 34 days thereafter. Antitumour activities were estimated by the inhibition of tumour volume, which was measured with a caliper at two-day intervals over the treatment period. Each point represents mean tumour volume calculated from 5 animals per experimental group. […] Treatments lasted for 30 days thereafter. Antitumour activities were estimated by the inhibition of tumour volume, which was measured with a caliper at various time intervals over the span of 30 days. Each point represents mean tumour volume calculated from 6 animals per experimental group. […] All treatments were stopped at day 36. Antitumour activities were estimated by the inhibition of tumour volume, which was measured with a caliper. Each point represents mean tumour volume calculated from 5 animals per experimental group. […] All treatments were stopped at day 52. Mice treated with saline or one of the three chemotherapeutic agents were sacrificed at day 80 because the tumour became too large. Mice treated with SEQ ID NO:1 were kept for 16 days further to observe possible resurgence of resistant tumour growth. Antitumour activities were estimated by the inhibition of tumour volume, which was measured with a caliper.

[3] = Phase I study of SEQ ID NO:1 by continuous intravenous infusion in patients with advanced cancer: toxicity and response
Method: Pharmacokinetic parameters were assessed. SEQ ID NO:1 was administered using a portable infusion pump in cycles of 21 days CVI followed by one week of rest. […] Doses were doubled in cohorts of 1-3 patients until the appearance of Gr 1 toxicity, with subsequent escalation of 20-30% in cohorts of 3 patients. DLT was defined as Gr 4 neutropenia lasting 3 days or with fever; Gr 4 thrombocytopenia (T) or Gr 3 T with Gr 1 bleeding; or Gr 3 non-hematologic toxicity.

[4] = test system: Caki-1 human kidney cancer cells; test: Caki-1 kidney tumour growth in CD-1 nude mice (3.8); type: in vivo, human cells in mice
Method: Treatments lasted for 14 days thereafter. Antitumour activities were estimated by the inhibition of tumour volume, which was measured with a caliper on four different occasions over the treatment period. Each point represents mean tumour volume calculated from 5 animals per experimental group. […] Control animals (control) received saline alone for the same period. At the end of the treatments, the animals were sacrificed, tumours were excised and their weights were measured. Each bar represents mean tumour weight calculated from 6 animals per experimental group. […] Treatments lasted for 24 days thereafter. Antitumour activities were estimated by the inhibition of tumour volume, which was measured with a caliper at two-day intervals over the treatment period. Each point represents mean tumour volume calculated from 4 animals per experimental group. […] Treatments lasted for 24 days thereafter. Antitumour activities were estimated by the inhibition of tumour volume, which was measured with a caliper at two-day intervals over the treatment period. Each point represents mean tumour volume calculated from 4 animals per experimental group. […] Each point represents mean tumour volume calculated from 5 animals per experimental group. […] Antitumour activities were estimated by the inhibition of tumour volume, which was measured with a caliper on four different occasions over 16-day period. […]

human whole blood = test: Intravenous compatibility assay (haemolysis); type: cell-based; settings: static or dynamic conditions
[5] = test system: HeLa S3 human cervical cancer cells; test: HeLa S3 cervical tumour growth in SCID mice (3.11); type: in vivo, human cells in mice
Method: Treatments lasted for 14 days thereafter. Antitumour activities were estimated by the inhibition of tumour volume, which was measured with a caliper on four different occasions over the treatment period. Each point represents mean tumour volume calculated from 5 animals per experimental group. […] Control animals (control) received saline alone for the same period. At the end of the treatments, the animals were sacrificed, tumours were excised and their weights were measured. Each bar represents mean tumour weight calculated from 6 animals per experimental group. […] Treatments lasted for 24 days thereafter. Antitumour activities were estimated by the inhibition of tumour volume, which was measured with a caliper at two-day intervals over the treatment period. Each point represents mean tumour volume calculated from 4 animals per experimental group. […] Treatments lasted for 24 days thereafter. Antitumour activities were estimated by the inhibition of tumour volume, which was measured with a caliper at two-day intervals over the treatment period. Each point represents mean tumour volume calculated from 4 animals per experimental group. […] Each point represents mean tumour volume calculated from 5 animals per experimental group. […] Antitumour activities were estimated by the inhibition of tumour volume, which was measured with a caliper on four different occasions over 16-day period. Each point represents mean tumour volume calculated from 5 animals per experimental group. […] Antitumour activities were estimated by the inhibition of tumour volume, which was measured with a caliper at two-day intervals over the treatment period. Each point represents mean tumour volume calculated from 5 animals per experimental group. […] Antitumour activities were estimated by the inhibition of tumour volume, which was measured with a caliper at various time intervals over the span of 30 days. Each point represents mean tumour volume calculated from 6 animals per experimental group. […] Antitumour activities were estimated by the inhibition of tumour volume, which was measured with a caliper. […]

[6] = test system: Hep G2 human liver cancer cells; test: HepG2 liver tumour growth in CD-1 nude mice (3.7); type: in vivo, human cells in mice
Method: as §1, with “Mice treated with saline or one of the three chemotherapeutic agents were sacrificed at day 80 because the tumour became too large. Mice treated with SEQ ID NO:1 were kept for 16 days further to observe possible resurgence of resistant tumour growth.” left out

[7] = Cycle 1, 18.5 mg/m^2/day 21 day CVI, 2 patients
[8] = Cycle 1, 74 mg/m^2/day 21 day CVI, 1 patient
[9] = Cycle 1, 148 mg/m^2/day 21 day CVI, 6 patients
[10] = Cycle 1, 185 mg/m^2/day 21 day CVI, 9 patients
[11] = Cycle 1, 222 mg/m^2/day 21 day CVI, 7 patients
[12] = Human Cervical Carcinoma^2 in SCID mice, Day 17 after tumour implantation

## 5′-GGCTAAATCGCTCCACCAAG-3′ (all phosphorothioate, sugars by position and methylation of C not given here) [SEQ ID NO: 1, fully phosphorothioated antisense oligonucleotide that hybridizes to the coding region of R2 mRNA]
[1]; DU145 (prostatic), SCID, second of two printed values (two independent experiments), SEQ ID NO:1 10 mg/kg i.v. every other day, mitoxantrone i.v.
  Tumour weight as % of saline control: 41%
[1]; DU145, SCID mice, SEQ ID NO:1 10 mg/kg i.v. every other day 15 times, mitoxantrone 2 mg/kg i.v. once
  Antitumour effect (tumour weight, FIG. 5A): significant delay of tumour growth compared to saline control
[2]; HT-29, CD-1 nude mice, 10 mg/kg i.v. every other day, 14 days
  Inhibitory effect on tumour growth (tumour volume, FIG. 17A): statistically significant inhibitory effects
[2]; HT-29, CD-1 nude mice, 0.4-6.0 mg/kg i.v. every other day for 14 days
  Inhibitory effect on tumour growth (tumour weight, FIG. 17B): statistically significant inhibitory effects on the growth of human colon adenocarcinoma in a dose-dependent manner
[2]; Human Colon Adenocarcinoma
  Inhibition of tumour weight: ~80%
[2]; Human Colon Adenocarcinoma in CD-1 nude mice, Day 18 after tumour implantation
  Inhibition of tumour size: approximately 80% on Day 18 after tumour
[2]; in vivo
  Dose dependence of tumour weight: Dose-dependent decrease in tumour weight in
[3]; 148 mg/m^2/day
  DLT: Gr 3 fatigue: 1/6
[3]; 185 mg/m^2/day
  Tolerability at the recommended phase II dose: well tolerated by 11 patients
[3]; 222 mg/m^2/day
  DLT: Gr 4 transaminase elevation: 2/6
[3]; 21 days CVI followed by one week of rest
  recommended phase II dose: 185 mg/m^2/day
[3]; 21 days CVI followed by one week of rest, patients with advanced malignancies
  maximum tolerated dose (MTD): 222 mg/m^2/day
[3]; [7]
  No. of Patients with Grade of Toxicity: Anorexia Grade 1: 1
  No. of Patients with Grade of Toxicity: Fatigue Grade 1: 1
[3]; [8]
  No. of Patients with Grade of Toxicity: Anorexia Grade 1: 1
  No. of Patients with Grade of Toxicity: Fatigue Grade 1: 1
  No. of Patients with Grade of Toxicity: Nausea Grade 1: 1
[3]; [9]
  No. of Patients with DLT (Table 10): 1
  No. of Patients with Grade of Toxicity: Anorexia Grade 1: 1
  No. of Patients with Grade of Toxicity: Anorexia Grade 2: 1
  No. of Patients with Grade of Toxicity: Fatigue Grade 1: 1
  No. of Patients with Grade of Toxicity: Fatigue Grade 2: 1
  No. of Patients with Grade of Toxicity: Fatigue Grade 3 (*DLT): 1*
  No. of Patients with Grade of Toxicity: Nausea Grade 2: 1
  No. of Patients with Grade of Toxicity: Neutropenia Grade 3: 1
[3]; [10]
  No. of Patients with Grade of Toxicity: Anorexia Grade 1: 2
  No. of Patients with Grade of Toxicity: Fatigue Grade 1: 3
  No. of Patients with Grade of Toxicity: Fatigue Grade 2: 2
  No. of Patients with Grade of Toxicity: Nausea Grade 1: 3
[3]; [11]
  No. of Patients with DLT (Table 11): 2
  No. of Patients with Grade of Toxicity: Anemia Grade 2: 2
  No. of Patients with Grade of Toxicity: Anorexia Grade 2: 1
  No. of Patients with Grade of Toxicity: Bilirubin Grade 2: 1
  No. of Patients with Grade of Toxicity: Bilirubin Grade 4 (*DLT): 1*
  No. of Patients with Grade of Toxicity: Fatigue Grade 1: 3
  No. of Patients with Grade of Toxicity: Fatigue Grade 2: 1
  No. of Patients with Grade of Toxicity: Nausea Grade 1: 3
  No. of Patients with Grade of Toxicity: Neutropenia Grade 2: 1
  No. of Patients with Grade of Toxicity: Rash Grade 2: 1
  No. of Patients with Grade of Toxicity: Transaminases Grade 2: 1
  No. of Patients with Grade of Toxicity: Transaminases Grade 4 (*DLT): 2*
[3]; doses 18.5 to 222 mg/m^2/day
  Hematologic toxicity: mild
  Number of DLTs observed: Three DLTs were observed in 25 patients assessable for toxicity
  Other serious toxicities: Gr 3 non-neutropenic infection: 2 patients
  Other serious toxicities: bowel obstruction: 1 patient
  common (Gr 1-2) non-hematologic toxicities: anorexia: 42%
  common (Gr 1-2) non-hematologic toxicities: fatigue: 69%
  common (Gr 1-2) non-hematologic toxicities: nausea: 38%
[3]; patients with advanced cancer, after 2 cycles
  Tumour response: stable disease: Four patients had stable disease (SD) after 2 cycles
[4]; Caki-1, CD-1 nude mice, 10 mg/kg i.v. every other day to day 36
  Inhibitory effect on tumour growth (tumour volume, FIG. 21A): powerful inhibitory effects on the growth of human renal carcinoma cells, resulting in total regression of the tumours in three mice
[4]; Human Renal Carcinoma (first entry of Table 5)
  Inhibition of tumour size: Approximately 90% inhibition of tumour size
Human whole blood
  Haemolytic activity (cell lysis and haemoglobin release): did not cause haemolysis under static or dynamic conditions
[5]; HeLa S3, SCID mice, 10 mg/kg i.v. every other day, 14 days
  Inhibitory effect on tumour growth (tumour volume and weight, FIG. 23): strong inhibitory effects on the growth of human cervical carcinoma
[5]; [12]
  Inhibition of tumour size: approximately 60% in SCID mice on Day 17fter
  Inhibition of tumour weight: approximately 60% in SCID mice on Day 17fter
[6]; Hep G2, CD-1 nude mice, 2.5 mg/kg i.v. every day, 30 days
  Inhibitory effect on tumour growth (tumour volume, FIG. 20): significant inhibitory effects on the growth of human hepatoma cells
[6]; Human Liver Carcinoma
  Inhibition of tumour weight: ~65%
[6]; Human Liver Carcinoma in CD-1 nude mice, Day 30 after tumour implantation
  Inhibition of tumour size: Inhibition of tumour size by 45% in CD-1 nude
